{"source": "paper PMC2774234", "about": "(Molecular cancer research : MCR, 2009)", "system": "Prx1", "assay": "Immunoblot of Prx1 after transient Prx1 siRNA transfection of LNCaP cells", "assay_type": "cell-based, human", "details": "75 nM siRNA", "data": [{"substance": "11838: Ambion siRNA directed against exon 6 of Prx1; sense 5'-GGCUACUGGUUUGUAUGAUTT-3' (antisense AUCAUACAAACCAGUAGCCTG; chemistry not given here) [compound 11838]", "values": [{"measurement": "expression of Prx1 (immunoblot)", "value": "essentially abolished the expression of Prx1"}]}]}
